System: brown cutaneous surface lipid of the rats
Experiment: Testing for anti-seborrheic activity: brown discoloration (brown cutaneous surface lipid) on shaved backs of male Wistar rats after topical application
Type: in vivo
Settings: 9 applications in 14 days; for Evaluation Method 1 (percentage of evaluators recognizing an effect): topical on one side of back fur, 6 male Wistar rats
Description: The anti-seborrheic activity of aryloxobutenoic acid derivatives was examined closely in the animal experiments described hereinafter. The experimental animals were male Wistar rats weighing from 220 to 230 gm. A degree of brown discoloration on the shaved backs of the rats was established visually; the brown discoloration was caused by the brown cutaneous surface lipid of the rats. This test is based upon the observation that young female rats as well as male rats that were washed with tenside solution and a lipid solvent, respectively, as well as male rats that were treated systematically with estrogen, show only the normal light-colored pink skin after shaving; parallel to this, only relatively very small amounts of lipid can be extracted from the shorn hair.
For evaluation of anti-seborrheic activity, the test substances set forth in the table below, each in solution in ethanol, were each brushed on one side of the back fur of six rats. The other side was treated only with the solvent without the active substance (control side). During the testing period of 14 days, application of test substance was made once a day on a total of 9 days. A group of 6 rats that remained completely untreated served as an additional control. At the end of the testing, the animals were shaved on the back and the flanks and inspected visually, this inspection being done independently by an evaluation panel (6 persons) under doubleblind conditions.
Three criteria were rated. The first criterion was whether the majority of the evaluators recognized the treated side properly. The differentiations were as follows:
The second criterion was the difference between the right and left sides, one point each to be given per evaluator and animal, in the manner that the darker side was rated 1, the lighter side was rated 0, and uniformity of both sides were rated 0.5.
Significant differences between the untreated and the treated side according to the second method of evaluation indicate the topical effectiveness of a substance.
The third criterion was the rating of the difference in intensity of the brown shades according to the following scale:
According to the third method of evaluation, the differences in the point totals between the untreated control animals and the treated and untreated sides, respectively, of the experimental animal group were calculated where significant differences between control animals and the treated side of the experimental animals indicate the effect of a substance. Similarly, a distinct difference between the untreated and the treated sides of the experimental animal groups is also generally noticeable. However, this is not always as distinct as that between control animals and treated sides, which may be due to various reasons, as, for example, mechanical transfer of substance from one side to the other or solvent influence.
The differentiation of the effects according to the methods of evaluation 2 and 3 was characterized in the following manner:
In addition, the percentage of sebum reduction was calculated by dividing the point difference (ΔP) by the number of points for the control group (Pk) and multiplying by 100%, as follows: […]

[1] = Rattus norvegicus, 336 h, 0.1% in ethanol, topical, point difference (ΔP) / points of control group (Pk) x 100%, read-out: Sebum Reduction
[2] = Rattus norvegicus, 336 h, 0.5% in ethanol, topical, point difference (ΔP) / points of control group (Pk) x 100%, read-out: Sebum Reduction

## CCOC(=O)C=CC(=O)c1ccc(Cl)cc1 [Example 1, 4-(4'-Chloro-phenyl)-4-oxo-but-2-enoic acid ethyl ester]
0.25% in ethanol
  Evaluation Method 1 (percentage of evaluators recognizing an effect): ++ (100%)
Rattus norvegicus, 336 h, 0.25% in ethanol, topical, point difference (ΔP) / points of control group (Pk) x 100%, read-out: Sebum Reduction
  inhibition in vivo at 0.25 %: 84%

## CCOC(=O)C=CC(=O)c1ccccc1 [Example 2, 4-Phenyl-4-oxo-but-2-enoic ethyl ester]
0.1% in ethanol
  Evaluation Method 1 (percentage of evaluators recognizing an effect): ++ (100%)

## CC(C)OC(=O)C=CC(=O)c1ccccc1 [Example 3, 4-Phenyl-4-oxo-but-2-enoic isopropyl ester]
0.1% in ethanol
  Evaluation Method 1 (percentage of evaluators recognizing an effect): ++ (100%)
[1]
  inhibition in vivo at 0.1 %: 68%

## CCCCOC(=O)C=CC(=O)c1ccccc1 [Example 4, 4-Phenyl-4-oxo-but-2-enoic acid butyl ester]
0.1% in ethanol
  Evaluation Method 1 (percentage of evaluators recognizing an effect): ++ (100%)
[1]
  inhibition in vivo at 0.1 %: 66%

## CCOC(=O)C=CC(=O)c1ccc(OC)c(OC)c1 [Example 5, 4-(3',4'-Dimethoxy-phenyl)-4-oxo-but-2-enoic acid ethyl ester]
0.1% in ethanol
  Evaluation Method 1 (percentage of evaluators recognizing an effect): ++ (100%)
[1]
  inhibition in vivo at 0.1 %: 65%

## CCCCOc1ccc(C(=O)C=CC(=O)OCC)cc1 [Example 6, 4-(4'-Butoxy-phenyl)-4-oxo-but-2-enoic acid ethyl ester]
0.5% in ethanol
  Evaluation Method 1 (percentage of evaluators recognizing an effect): ++ (100%)
[2]
  inhibition in vivo at 0.5 %: 42%

## CCOC(=O)C=CC(=O)c1ccc(OC)c(OC)c1O [Example 8, 4-(3',4'-Dimethoxy-2'-hydroxy-phenyl)-4-oxo-but-2-enoic acid ethyl ester]
0.5% in ethanol
  Evaluation Method 1 (percentage of evaluators recognizing an effect): ++ (100%)
[2]
  inhibition in vivo at 0.5 %: 69%

## CCOC(=O)C=CC(=O)c1ccc(NC(C)=O)cc1 [Example 9, 4-(4'-Acetylamino-phenyl)-4-oxo-but-2-enoic acid ethyl ester]
0.1% in ethanol
  Evaluation Method 1 (percentage of evaluators recognizing an effect): ++ (100%)
[1]
  inhibition in vivo at 0.1 %: 84%

## CCOC(=O)C=CC(=O)c1ccc(Cl)cc1Cl [Example 10, 4-(2',4'-Dichloro-phenyl)-4-oxo-but-2-enoic acid ethyl ester]
0.1% in ethanol
  Evaluation Method 1 (percentage of evaluators recognizing an effect): ++ (100%)
[1]
  inhibition in vivo at 0.1 %: 27%
